Measured values as given in article PMC8080530, “Glucocorticoid receptor Thr524 phosphorylation by MINK1 induces interactions with 14-3-3 protein regulators” (The Journal of Biological Chemistry, 2021).
Read-outs that look alike come from different tables or passages of the source. Non-standard residues stand in square brackets, D forms with d. Residues, ends and D or L forms follow the SMILES beside them. *: point of attachment. 6FAM = O=C1OC2(c3ccc(O)cc3Oc3cc(O)ccc32)c2cc(C(=O)*)ccc21; pT = C[C@@H](OP(=O)(O)O)[C@H](N)C(=O)O; pS = N[C@@H](COP(=O)(O)O)C(=O)O

Molecular target: T1, 14-3-3ζ (Homo sapiens, UniProt P63104)
T1 construct: Full-length expression and purification of 14-3-3; made in house; host or cells: E. coli BL21 (DE3)STAR
T1 sequence (P63104 1-245): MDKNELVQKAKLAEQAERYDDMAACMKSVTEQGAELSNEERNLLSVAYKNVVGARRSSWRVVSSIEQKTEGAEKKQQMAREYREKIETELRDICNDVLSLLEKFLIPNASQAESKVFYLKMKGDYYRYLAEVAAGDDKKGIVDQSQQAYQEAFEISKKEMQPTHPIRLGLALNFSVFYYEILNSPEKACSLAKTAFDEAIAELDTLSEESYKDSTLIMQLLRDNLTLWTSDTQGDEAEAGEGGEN
Test: FP assay with GR phosphorylated peptides and 14-3-3ζ
Assay type: binding
Procedure: After 30-min incubation at RT, the plates were read on a plate reader PHERAstar (BMG LABTECH GmbH) for FP signal using […] and standard excitation (485 nm) and emission (520 nm). Measurements were performed as triplicates. Binding data were fit to a standard Hill equation using the software Genedata Screener. The figures were made using the software GraphPad Prism 8. FP data were expressed as millipolarization (mP) units, and the dynamic range (ΔmP) was the difference of the signals from the bound peptide and free peptide. Errors are the standard error of the fit.

[1] = FITC-labeled peptide 60 nM (monophosphorylated) or 10 nM (doubly phosphorylated) titrated with 14-3-3ζ, 30 min RT, Hill fit, triplicates, read-out: Kd with 14-3-3ζ by FP
[2] = read-out: PKd with 14-3-3ζ (converted)

Row | Compound | Kd [1] [nM] | Kd [2] [nM]
1 | CC(C)C[C@H](NC(=O)[C@H](CC(C)C)NC(=O)[C@H](Cc1ccccc1)NC(=O)[C@H](COP(=O)(O)O)NC(=O)[C@H](CC(=O)O)NC(=O)[C@H](CC(=O)O)NC(=O)[C@H](CCC(=O)O)NC(=O)CNC(=O)[C@H](C)NC(=O)[C@@H](N)CC(C)C)C(=O)N[C@@H](CCC(=O)O)C(=O)NCC(=O)N[C@@H](CC(N)=O)C(=O)O [GR_pS234] (H-LAGEDD[pS]FLLEGN-OH; N-terminus assumed) | > 150000 | –
2 | CC[C@H](C)[C@H](NC(=O)[C@@H](NC(=O)[C@@H](N)CCCCN)[C@@H](C)O)C(=O)N[C@H](C(=O)N1CCC[C@H]1C(=O)N[C@@H](C)C(=O)N[C@H](C(=O)N[C@@H](CC(C)C)C(=O)N1CCC[C@H]1C(=O)N[C@@H](CCC(N)=O)C(=O)N[C@@H](CC(C)C)C(=O)N[C@H](C(=O)N1CCC[C@H]1C(=O)NCC(=O)NCC(=O)NCC(=O)NCC(=O)NCC(=O)N[C@@H](CCCNC(=N)N)C(=O)N[C@@H](C)C(=O)N[C@@H](Cc1ccc(O)cc1)C(=O)N[C@@H](CCCNC(=N)N)C(=O)N[C@@H](CCC(N)=O)C(=O)N[C@@H](CO)C(=O)N[C@@H](COP(=O)(O)O)C(=O)N[C@@H](C)C(=O)N[C@@H](CC(N)=O)C(=O)N[C@@H](CC(C)C)C(=O)N[C@@H](CC(C)C)C(=O)N[C@@H](CS)C(=O)N[C@@H](Cc1ccccc1)C(=O)O)[C@@H](C)O)[C@@H](C)OP(=O)(O)O)C(C)C [GR_S612A] (H-KTIVPA[pT]LPQLTPGGGGGRAYRQS[pS]ANLLCF-OH) | – | 31.6
3 | CC(C)C[C@H](NC(=O)[C@H](CC(N)=O)NC(=O)[C@H](C)NC(=O)[C@H](COP(=O)(O)O)NC(=O)[C@H](CO)NC(=O)[C@H](CCC(N)=O)NC(=O)[C@H](CCCNC(=N)N)NC(=O)[C@H](Cc1ccc(O)cc1)NC(=O)[C@H](CO)NC(=O)[C@H](CCCNC(=N)N)NC(=O)CNC(=O)CNC(=O)CNC(=O)CNC(=O)CNC(=O)[C@@H]1CCCN1C(=O)[C@@H](NC(=O)[C@H](CC(C)C)NC(=O)[C@H](CCC(N)=O)NC(=O)[C@@H]1CCCN1C(=O)[C@H](CC(C)C)NC(=O)[C@@H](NC(=O)[C@H](C)NC(=O)[C@@H]1CCCN1C(=O)[C@@H](NC(=O)[C@H](C)NC(=O)[C@@H](NC(=O)[C@@H](N)CCCCN)[C@@H](C)O)C(C)C)[C@@H](C)OP(=O)(O)O)[C@@H](C)O)C(=O)N[C@@H](CC(C)C)C(=O)N[C@@H](CS)C(=O)N[C@@H](Cc1ccccc1)C(=O)O [GR_I520A] (H-KTAVPA[pT]LPQLTPGGGGGRSYRQS[pS]ANLLCF-OH) | – | 50.1
4 | CC[C@H](C)[C@H](NC(=O)[C@@H](NC(=O)[C@H](CCCCN)NC(=O)CNC(=O)CNC(=O)CNC(=O)CNC(=O)CNC(=O)[C@H](CCCCN)NC(=O)[C@@H]1CCCN1C(=O)[C@H](CC(N)=O)NC(=O)[C@H](CCC(=O)O)NC(=O)[C@@H]1CCCN1C(=O)[C@@H](NC(=O)[C@H](COP(=O)(O)O)NC(=O)[C@@H](NC(=O)[C@H](CO)NC(=O)[C@H](CCCNC(=N)N)NC(=O)[C@H](CC(N)=O)NC(=O)[C@H](CC(C)C)NC(=O)[C@H](CC(N)=O)NC(=O)c1ccc2c(c1)C1(OC2=O)c2ccc(O)cc2Oc2cc(O)ccc21)[C@@H](C)O)C(C)C)[C@@H](C)O)C(=O)N[C@H](C(=O)N1CCC[C@H]1C(=O)N[C@@H](C)C(=O)N[C@H](C(=O)N[C@@H](CC(C)C)C(=O)N1CCC[C@H]1C(=O)N[C@@H](CCC(N)=O)C(=O)N[C@@H](CC(C)C)C(=O)N[C@H](C(=O)N1CCC[C@H]1C(=O)O)[C@@H](C)O)[C@@H](C)OP(=O)(O)O)C(C)C [GR_pS134-pT524] (6FAM-NLNRST[pS]VPENPKGGGGGKTIVPA[pT]LPQLTP-OH; C-terminus assumed) | 550 | –
5 | CC[C@H](C)[C@H](NC(=O)[C@@H](NC(=O)[C@@H](N)CCCCN)[C@@H](C)O)C(=O)N[C@H](C(=O)N1CCC[C@H]1C(=O)N[C@@H](C)C(=O)N[C@H](C(=O)N[C@@H](CC(C)C)C(=O)N1CCC[C@H]1C(=O)N[C@@H](CCC(N)=O)C(=O)N[C@@H](CC(C)C)C(=O)N[C@H](C(=O)N1CCC[C@H]1C(=O)NCC(=O)NCC(=O)NCC(=O)NCC(=O)NCC(=O)N[C@@H](CCCNC(=N)N)C(=O)N[C@@H](CO)C(=O)N[C@@H](Cc1ccc(O)cc1)C(=O)N[C@@H](CCCNC(=N)N)C(=O)N[C@@H](CCC(N)=O)C(=O)N[C@@H](CO)C(=O)N[C@@H](COP(=O)(O)O)C(=O)N[C@@H](C)C(=O)N[C@@H](CC(N)=O)C(=O)N[C@@H](CC(C)C)C(=O)N[C@@H](CC(C)C)C(=O)N[C@@H](C)C(=O)N[C@@H](Cc1ccccc1)C(=O)O)[C@@H](C)O)[C@@H](C)OP(=O)(O)O)C(C)C [GR_C622A] (H-KTIVPA[pT]LPQLTPGGGGGRSYRQS[pS]ANLLAF-OH) | – | 63.1
6 | CC[C@H](C)[C@H](NC(=O)[C@@H](NC(=O)[C@@H](N)CCCCN)[C@@H](C)O)C(=O)N[C@H](C(=O)N1CCC[C@H]1C(=O)N[C@@H](C)C(=O)N[C@H](C(=O)N[C@@H](CC(C)C)C(=O)N1CCC[C@H]1C(=O)N[C@@H](CCC(N)=O)C(=O)N[C@@H](C)C(=O)N[C@H](C(=O)N1CCC[C@H]1C(=O)NCC(=O)NCC(=O)NCC(=O)NCC(=O)NCC(=O)N[C@@H](CCCNC(=N)N)C(=O)N[C@@H](CO)C(=O)N[C@@H](Cc1ccc(O)cc1)C(=O)N[C@@H](CCCNC(=N)N)C(=O)N[C@@H](CCC(N)=O)C(=O)N[C@@H](CO)C(=O)N[C@@H](COP(=O)(O)O)C(=O)N[C@@H](C)C(=O)N[C@@H](CC(N)=O)C(=O)N[C@@H](CC(C)C)C(=O)N[C@@H](CC(C)C)C(=O)N[C@@H](CS)C(=O)N[C@@H](Cc1ccccc1)C(=O)O)[C@@H](C)O)[C@@H](C)OP(=O)(O)O)C(C)C [GR_L528A] (H-KTIVPA[pT]LPQATPGGGGGRSYRQS[pS]ANLLCF-OH) | – | 50.1
7 | CC[C@H](C)[C@H](NC(=O)[C@@H](NC(=O)[C@@H](N)CCCCN)[C@@H](C)O)C(=O)N[C@H](C(=O)N1CCC[C@H]1C(=O)N[C@@H](C)C(=O)N[C@H](C(=O)N[C@@H](CC(C)C)C(=O)N1CCC[C@H]1C(=O)N[C@@H](CCC(N)=O)C(=O)N[C@@H](CC(C)C)C(=O)N[C@H](C(=O)N1CCC[C@H]1C(=O)NCC(=O)NCC(=O)NCC(=O)NCC(=O)NCC(=O)N[C@@H](CCCNC(=N)N)C(=O)N[C@@H](CO)C(=O)N[C@@H](Cc1ccc(O)cc1)C(=O)N[C@@H](CCCNC(=N)N)C(=O)N[C@@H](CCC(N)=O)C(=O)N[C@@H](CO)C(=O)N[C@@H](C)C(=O)N[C@@H](C)C(=O)N[C@@H](CC(N)=O)C(=O)N[C@@H](CC(C)C)C(=O)N[C@@H](CC(C)C)C(=O)N[C@@H](CS)C(=O)N[C@@H](Cc1ccccc1)C(=O)O)[C@@H](C)O)[C@@H](C)OP(=O)(O)O)C(C)C [GR_pT524-S617A] (H-KTIVPA[pT]LPQLTPGGGGGRSYRQSAANLLCF-OH) | – | 1260
8 | CC(C)C[C@H](NC(=O)[C@H](CO)NC(=O)[C@H](CCC(=O)O)NC(=O)[C@H](CCCCN)NC(=O)[C@H](CO)NC(=O)[C@@H](N)CC(=O)O)C(=O)N[C@H](C(=O)N1CCC[C@H]1C(=O)NCC(=O)N[C@@H](CCCNC(=N)N)C(=O)N[C@@H](CCC(=O)O)C(=O)N[C@@H](CCC(=O)O)C(=O)N[C@@H](CC(N)=O)C(=O)O)[C@@H](C)OP(=O)(O)O [GR_pT8] (H-DSKESL[pT]PGREEN-OH; N-terminus assumed) | > 150000 | –
9 | CC[C@H](C)[C@H](NC(=O)[C@@H](NC(=O)[C@@H](N)CCCCN)[C@@H](C)O)C(=O)N[C@H](C(=O)N1CCC[C@H]1C(=O)N[C@@H](C)C(=O)N[C@@H](C)C(=O)N[C@@H](CC(C)C)C(=O)N1CCC[C@H]1C(=O)N[C@@H](CCC(N)=O)C(=O)N[C@@H](CC(C)C)C(=O)N[C@H](C(=O)N1CCC[C@H]1C(=O)NCC(=O)NCC(=O)NCC(=O)NCC(=O)NCC(=O)N[C@@H](CCCNC(=N)N)C(=O)N[C@@H](CO)C(=O)N[C@@H](Cc1ccc(O)cc1)C(=O)N[C@@H](CCCNC(=N)N)C(=O)N[C@@H](CCC(N)=O)C(=O)N[C@@H](CO)C(=O)N[C@@H](COP(=O)(O)O)C(=O)N[C@@H](C)C(=O)N[C@@H](CC(N)=O)C(=O)N[C@@H](CC(C)C)C(=O)N[C@@H](CC(C)C)C(=O)N[C@@H](CS)C(=O)N[C@@H](Cc1ccccc1)C(=O)O)[C@@H](C)O)C(C)C [GR_T524A-pS617] (H-KTIVPAALPQLTPGGGGGRSYRQS[pS]ANLLCF-OH) | – | 126000
10 | CC[C@H](C)[C@H](NC(=O)[C@@H](NC(=O)[C@@H](N)CCCCN)[C@@H](C)O)C(=O)N[C@H](C(=O)N1CCC[C@H]1C(=O)N[C@@H](C)C(=O)N[C@H](C(=O)N[C@@H](CC(C)C)C(=O)N1CCC[C@H]1C(=O)N[C@@H](CCC(N)=O)C(=O)N[C@@H](CC(C)C)C(=O)N[C@H](C(=O)N[C@@H](C)C(=O)NCC(=O)NCC(=O)NCC(=O)NCC(=O)NCC(=O)N[C@@H](CCCNC(=N)N)C(=O)N[C@@H](CO)C(=O)N[C@@H](Cc1ccc(O)cc1)C(=O)N[C@@H](CCCNC(=N)N)C(=O)N[C@@H](CCC(N)=O)C(=O)N[C@@H](CO)C(=O)N[C@@H](COP(=O)(O)O)C(=O)N[C@@H](C)C(=O)N[C@@H](CC(N)=O)C(=O)N[C@@H](CC(C)C)C(=O)N[C@@H](CC(C)C)C(=O)N[C@@H](CS)C(=O)N[C@@H](Cc1ccccc1)C(=O)O)[C@@H](C)O)[C@@H](C)OP(=O)(O)O)C(C)C [GR_P530A] (H-KTIVPA[pT]LPQLTAGGGGGRSYRQS[pS]ANLLCF-OH) | – | 31.6
